The results in this text go back to US20100196311A1, “METHODS AND COMPOSITIONS CONTAINING mTOR INHIBITORS FOR ENHANCING IMMUNE RESPONSES” (priority 2009, published 2010).

In experiment [1] the target is T1, mTOR (Mus musculus, UniProt P26883+Q9JLN9).
T1 construct: endogenous in cells; host or cells: naive OT-I CD8+ T cells (TCR transgenic Rag2-/- mice) stimulated with Ag+B7.1 +/- IL-12
The experiment can be described thus: mTOR activity (mTOR, S6K and S6 phosphorylation by ICS) in stimulated OT-I cells. The experiment is classed as cell-based. Here is the method:
FIG. 1. […] (A and B) OT-I cells stimulated with BOK (Ag+B7.1) (±) IL-12 were evaluated for (A) IFN-γ by ICS and (B) cytolytic activity (primary, 72 hr poststimulation; secondary, 24 hr postsecondary stimulation); ***p<0.0002. (C-E) OT-I cells stimulated with antigen (Ag) (the antigen is a peptide consisting of Ser Ile Ile followed by Asn Phe Glu which are followed by Lys and Lue (OVAp), used at 10 nM) plus B7.1 (100 μg/ml)(Ag+B7.1)(±) IL-12 (2 ng/ml) were evaluated by ICS at the indicated time points for (C) phosphorylated mTOR, (D) phosphorylated S6K, and (E) phosphorylated ribosomal S6. For mTOR inhibition, rapamycin (20 ng/ml) was added 30 min prior to addition of antigen, cytokine Data are representative of at least three independent experiments with similar outcomes. (Data are presented as mean±SEM.)
(§1) Stimulation of OT-1 Cells. Naive OT-I cells were stimulated with latex microspheres expressing H-2K^b/ovalbumin antigen and B7.1 according to known techniques. Naive OT-II cells were stimulated with anti-CD3-/anti-CD28-coated latex beads. In some experiments, the cell line derived from embryonic fibroblasts, namely, BOK (MEC.B7.SigOVA: expressing H-2K^b, OVAp and B7.1, were used as antigen-presenting cells to stimulate naive OT-I cells according to known techniques.
Although the kinase mTOR has been implicated as an integrator of various extracellular signals and a sensor for internal energy levels for determination of cell fate, the role for mTOR in integrating instructions that program naive CD8^+ T cells for type I effector differentiation is unclear. First, we tested the ability of Ag and B7.1 (Ag+B7.1) in the presence or absence of IL-12 to activate mTOR in OT-I cells at various time points after stimulation. Stimulation of naive OT-I cells with Ag+B7.1 induced mTOR phosphorylation (activation) by 2 hr, which was maximal at 12 hr and barely detectable by 48 hr (FIG. 1C). Remarkably, IL-12 addition enhanced Ag+B7.1-induced mTOR phosphorylation at 2 hr, which was maintained at 48 hr after stimulation (FIG. 1C). […] To verify that the induction of mTOR phosphorylation also led to its kinase activity, we monitored the kinetics of p70 S6K phosphorylation (Ser 371), a direct target of mTOR kinase activity. Although both Ag+B7.1 and Ag+B7.1 plus IL-12 induced similar amounts of S6K phosphorylation at 12 hr (maximal), the presence of IL-12 was able to sustain the S6K phosphorylation up to 48 hr (FIG. 10), in correlation with mTOR phosphorylation (FIG. 1C). […] The Ag+B7.1±IL-12 stimulation-induced S6K and S6 phosphorylation in OT-I cells was blocked by rapamycin (specific inhibitor of mTOR complex-1) (FIGS. 1D and 1E), thus confirming the ability of instructions to activate mTOR and its kinase activity in OT-I cells. […]

Experiment [2] concerns OT-I cells. The experiment can be described thus: Type I effector functions (IFN-γ, CTL activity, Granzyme B) of OT-I cells, primary and secondary phase. It counts as cell-based, mouse. Here is the method:
FIG. 3. Sustained mTOR Activity Is Essential for Heritable Type I Effector Differentiation of CD8^+ T Cells. […] (D and E) OT-I cells were stimulated with Ag+B7.1 (±) IL-12 and rapamycin was added 12 hr after stimulation to evaluate cells for (D) S6K phosphorylation at 48 hr and (E) IFN-γ production at the primary and secondary phase. Experiments shown are representative of at least three (A and B) and two (C-E) independent experiments with similar outcomes. (Data are presented as mean±SEM.)
as §1
Evaluation of Secondary Antigen-Recall Responses In Vitro. For studying secondary antigen-recall response in vitro; OT-I cells harvested at 72 hr (primary) were washed thrice with medium and recultured (1×10^5/ml) for an additional 72 hr in a 24-well plate with IL-7 (10 ng/ml) only. At 144 hr the cells were harvested, washed thrice with medium, had numbers adjusted (5×10^5), and were restimulated with Ag/B7.1 only for an additional 24 hr (secondary stimulation). At 168 hr, the cells recovered were evaluated by flow cytometry and in vitro functional assay.
Because the presence of IL-12 during antigen stimulation augments mTOR activity and is deterministic for type I effector maturation, we analyzed whether sustained mTOR kinase activity is required for IL-12-programmed type I effector functions in OT-I cells. To do so, we stimulated naive OT-I cells with BOK±IL-12, and rapamycin and effector functions were analyzed from the primary and secondary activated OT-I pool. […] In addition, we observed a block in IL-12-induced IFN-γ production and CTL activity upon rapamycin treatment at 144 hr after primary stimulation.

Where [3] appears, read: IFN-α, Ag+B7.1-stimulated OT-I cells.

IFN-α: the mTOR activity result in experiment [1] (setting [3]) is reported as “unable to enhance”. Further, in experiment [2] (setting [3]), the IFN-γ production entry is given as “increases”.

B1: IL-12: interleukin-12, cytokine (signal 3) (protein, UniProt P43431 23-215; P43432 23-335, looked up)
Interleukin-12 subunit alpha: RVIPVSGPARCLSQSRNLLKTTDDMVKTAREKLKHYSCTAEDIDHEDITRDQTSTLKTCLPLELHKNESCLATRETSSTTRGSCLPPQKTSLMMTLCLGSIYEDLKMYQTEFQAINAALQNHNHQQIILDKGMLVAIDELMQSLNHNGETLRQKPPVGEADPYRVKMKLCILLHAFSTRVVTINRVMGYLSSA
Interleukin-12 subunit beta: MWELEKDVYVVEVDWTPDAPGETVNLTCDTPEEDDITWTSDQRHGVIGSGKTLTITVKEFLDAGQYTCHKGGETLSHSHLLLHKKENGIWSTEILKNFKNKTFLKCEAPNYSGRFTCSWLVQRNMDLKFNIKSSSSSPDSRAVTCGMASLSAEKVTLDQRDYEKYSVSCQEDVTCPTAEETLPIELALEARQQNKYENYSTSFFIRDIIKPDPPKNLQMKPLKNSQVEVSWEYPDSWSTPHSYFSLKFFVRIQRKKEKMKETEEGCNQKGAFLVEKTSTEVQCKGGNVCVQAQDRYYNSSCSKWACVPCRVRS
Take B1: the mTOR phosphorylation result in experiment [1] (IL-12 (2 ng/ml) added to Ag+B7.1 stimulation, 2-48 hr) is “enhances and sustains”. The “IFN-γ production and CTL activity” value in experiment [2] (IL-12 added to BOK-stimulated OT-I cells, 72 hr) was “robust”.
